Laboratory results reported in US10682332B2, “Method for treating melanoma” (Huanggang normal University, priority 2017, dated 2020).

Assays:
[1] = system: human melanoma cancer cell A2058; assay: Growth inhibition of human melanoma cancer cell A2058; format: cell-based; details: 3.125-50 μmol solutions, 48 hrs culturing, absorbance
Experimental: (§1) The study was conducted using human melanoma cancer cell line A2058 or A375 as follows: culturing the cell line in DMEM medium; adding 5-hydroxy-3,6,7,8,3′,4′-hexamethoxyflavone with varying concentrations (3.125, 6.25, 12.5, 25, 50 μmol in 100 μl of 2% DMSO solution per liter of the medium); collecting the control and treated cells after 48 hrs of culturing and determining the cell viability by measuring light absorbance of the cells; and calculating the IC50 rate in the human melanoma cancer cells.
(§2) The cells derived from human melanoma lines A2058 and A375 were cultured in DMEM medium containing 100 U/mL penicillin, 100 μg/ml streptomycin, and 10% fetal bovine serum at a temperature of 37° C. and with carbon dioxide at a concentration of 5%. The cultured cells were divided into 6 study groups and each would be treated with 5-hydroxy-3,6,7,8,3′,4′-hexamethoxyflavone of a different concentration. […] After culturing for 48 hrs, the cells were collected and the absorbance of each treatment group was measured for calculating the IC50 rate in human melanoma cancer cell A2058 by the treatment. […]

[2] = system: human melanoma cancer cell A375; assay: Growth inhibition of human melanoma cancer cell A375; format: cell-based; details: 3.125-50 μmol solutions, 48 hrs culturing, absorbance
Experimental: as §1, §2

[3] = system: human melanoma cancer cell A375; assay: Cell cycle arrest by PI staining and flow cytometry; format: cell-based; details: 24 hrs, control 1.4%
Experimental: To further elucidate the mechanism of growth inhibition of the human melanoma cancer cells by 5-hydroxy-3,6,7,8,3′,4′-hexamethoxyflavone, another study was carried out using only human melanoma cancer cell A375 and 3 study groups. In one liter of the culturing media, 100 μL of 25 and 50 μmol of 5-hydroxy-3,6,7,8,3′,4′-hexamethoxyflavone prepared solutions were added to two study groups. The control group was only treated with 2% DMSO solution.
The studied cells were incubated for 24 hrs before collected in a centrifuge tube. The cells were then washed with PBS at 4° C. and n mixed with 70% ethanol pre-cooled at −20° C. before kept at 4° C. overnight. Next, the cells were centrifuged at 1000 rpm to remove ethanol and the cell density was adjusted to (1-2)×10^6 cells/mL by add PBS. Following adding PI and DNase-free RNase to respectively reach final concentrations of 50 μg/mL and 50 µg/mL, the cells were stained for cell cycle and apoptosis studies by flow cytometry. All studies were repeated 3 times and the averages were calculated.

[4] = system: human melanoma cancer cell A375-engrafted C57BL/6 mice; assay: Tumor growth in human melanoma cancer cell A375-engrafted C57BL/6 mice; format: in vivo, mouse; details: fed 0.4 mL of 0.5 μmol solution once every 2 days, 28 days after inoculation; control 2450 mm^3
Experimental: The study was carried out as follows: inoculating C57BL/6 mice with of the human melanoma cancer cells; dividing the mice into 2 groups with 8 mice in each group and treating them once every two days with (i) 0.4 ml of 2% DMSO, (ii) 0.4 ml of 2% DMSO containing 0.5 μmol of 5-hydroxy-3,6,7,8,3′,4′-hexamethoxyflavone; measuring tumor sizes after animal sacrificing 28 days post tumor cell inoculation.
The experimental C57BL/6 mice were divided into 2 groups, with 8 in each group. Each mouse was fed with 0.4 mL of 0.5 μmol 5-hydroxy-3,6,7,8,3′,4′-hexamethoxyflavone solution as in the treatment group or with 0.4 mL 2% DMSO solution as in the control group at a frequency of once every 2 days. Each mouse was inoculated with human melanoma cancer cell A375 following a standard protocol. 28 days after of the inoculation, the mice were sacrificed. Finally, sizes of tumors in each group of mice were measured and their averages were calculated.

## COc1ccc(-c2oc3c(OC)c(OC)c(OC)c(O)c3c(=O)c2OC)cc1OC [2-(3,4-dimethoxy-phenyl)-5-hydroxy-3,6,7,8-tetramethoxy-chromen-4-one]
[1]
  growth of human melanoma cancer cell A2058: inhibited the growth
[2]
  growth of human melanoma cancer cell A375: inhibited the growth
[3]; 25 μmol drug solution
  G1 phase cells of the total cells: 9.4%
[3]; 50 μmol drug solution
  G1 phase cells of the total cells: 25%
[4]
  average tumor size: 890 mm^3
